Test results published in EPA's CvTdb concentration-time database.

Key:
Rat [1] = assay: concentration in plasma after dosing
Rat [2] = assay: concentration in plasma after dosing; conditions: 0.25 h; dosed: Wyeth-14643; 5.0 mg/kg; oral; Male; Sprague-Dawley
Rat [3] = assay: concentration in plasma after dosing; conditions: 5 min; dosed: Wyeth-14643; 2.0 mg/kg; oral; Male; Sprague-Dawley
Rat [4] = assay: concentration in thymus after dosing; conditions: dosed: Bis 2-Chloroethoxy Methane, 20 mg/kg, iv
Rat [5] = assay: concentration in heart after dosing; conditions: dosed: Bis 2-Chloroethoxy Methane, 20 mg/kg, iv
Rat [6] = assay: concentration in plasma after dosing; conditions: 4 h; dosed: Bis 2-Chloroethoxy Methane; 20 mg/kg; iv; Female; F344
Rat [7] = assay: concentration in liver after dosing; conditions: dosed: Bis 2-Chloroethoxy Methane, 20 mg/kg, iv, F344
Rat [8] = assay: concentration in plasma after dosing; conditions: 6 h; dosed: Bis 2-Chloroethoxy Methane; 20 mg/kg; iv; Male; F344

Cc1cccc(Nc2cc(Cl)nc(SCC(=O)O)n2)c1C
concentration in plasma [µg/mL], Rat [1], Male, Sprague-Dawley
Conditions | dosed: Wyeth-14643, 1.0 mg/kg | dosed: Wyeth-14643, 2.0 mg/kg | dosed: Wyeth-14643, 5.0 mg/kg
0.25 h, iv | – | 8.89 | –
0.25 h, oral | 0.48 | 0.941 | 2.34
0.5 h, iv | – | 4.96 | –
0.5 h, oral | 0.493 | 1.35 | 3.24
1 h, iv | – | 2.67 | –
1 h, oral | 0.548 | 1.01 | 4.08
2 h, iv | – | 0.682 | –
2 h, oral | 0.373 | 0.466 | 1.93
2.5 min, iv | – | 28.3 | –
3 h, iv | – | 0.253 | –
3 h, oral | 0.145 | 0.972 | –
4 h, iv | – | 0.218 | –
4 h, oral | – | 0.273 | 1.05
5 h, oral | 0.357 | 0.312 | –
5 min, iv | – | 20.7 | –
5 min, oral | – | 0.27 | 0.52
6 h, oral | – | 0.118 | 0.506
7 h, oral | 0.124 | – | –
8 h, oral | – | 0.305 | 0.421
24 h, oral | – | – | 0.129

Conditions | concentration in plasma [µg/mL]
Rat [2] | 10.6
Rat [3] | 0.405

ClCCOCOCCCl [Bis 2-Chloroethoxy Methane]
Conditions | concentration in heart, Rat [5] [ng/g] | concentration in thymus, Rat [4] [ng/g]
1 h, Female, F344 | 1530 | 2600
1 h, Male, F344 | 1400 | 3100
2 h, Female, F344 | 338 | 712
2 h, Male, F344 | 466 | 783
3 h, Female, F344 | 123 | 199
3 h, Male, F344 | 179 | 305
4 h, Female, F344 | 53.5 | 52.4
4 h, Male, F344 | 57.5 | 72.9
5 h, Female, F344 | 38.7 | 62.4
5 h, Male, F344 | 47.8 | 77.9
6 h, Female, F344 | 31.7 | 48.8
6 h, Male, F344 | 31.5 | 29.6
7 h, Female, F344 | – | 26.6
7 h, Male, F344 | 21.1 | 36
8 h, Female, F344 | – | 16.4
8 h, Female, Harlan Sprague-Dawley | 13.3 | 18.1
10 min, Female, F344 | 11300 | 33300
10 min, Male, F344 | 12200 | 66700
20 min, Female, F344 | 6050 | 22300
20 min, Male, F344 | 6780 | 13900
40 min, Female, F344 | 4450 | 12400
40 min, Male, F344 | 7060 | 7360

concentration in plasma [µg/mL], Rat [1], dosed: Bis 2-Chloroethoxy Methane, iv
Conditions | Female | Male
1 h, 20 mg/kg, F344 | 1.38 | 1.4
1 h, 40 mg/kg, Harlan Sprague Dawley | – | 3.85
2 h, 20 mg/kg, F344 | 0.202 | 0.337
2 h, 40 mg/kg, Harlan Sprague Dawley | – | 0.648
3 h, 20 mg/kg, F344 | 0.0828 | 0.119
3 h, 40 mg/kg, Harlan Sprague Dawley | – | 0.333
4 h, 20 mg/kg, F344 | 0.079 | 0.117
4 h, 40 mg/kg, Harlan Sprague Dawley | – | 0.139
5 h, 20 mg/kg, F344 | 0.0254 | 0.0326
5.333 h, 40 mg/kg, Harlan Sprague Dawley | – | 0.0746
6 h, 20 mg/kg, F344 | 0.0102 | 0.028
6.667 h, 40 mg/kg, Harlan Sprague Dawley | – | 0.0459
7 h, 20 mg/kg, F344 | – | 0.016
8 h, 20 mg/kg, Harlan Sprague-Dawley | 0.0112 | –
8 h, 40 mg/kg, Harlan Sprague Dawley | – | 0.0157
10 min, 20 mg/kg, F344 | 9.58 | 10.4
10 min, 40 mg/kg, Harlan Sprague Dawley | – | 23.4
20 min, 20 mg/kg, F344 | 5.4 | 4.84
20 min, 40 mg/kg, Harlan Sprague Dawley | – | 10.2
40 min, 20 mg/kg, F344 | 2.11 | 2.64
40 min, 40 mg/kg, Harlan Sprague Dawley | – | 7.61

Conditions | concentration in plasma [ng/mL]
Rat [6] | 63.4
Rat [8] | 12.2

concentration in liver [ng/g], Rat [7]
Conditions | 1 h | 2 h | 3 h | 4 h | 5 h | 6 h | 10 min | 20 min | 40 min
Female | 526 | 65.2 | – | – | – | – | 1570 | 2310 | 662
Male | 1620 | 640 | 121 | 66.5 | 31.1 | 26.2 | 3090 | 2860 | 4290
